Reference: ChEMBL document CHEMBL4261583, “Discovery of potent calpain inhibitors based on the azolo-imidazolidenone scaffold” (Eur J Med Chem, 2018)
The source made the active and inactive calls. The calls are words filed in the database; no cut-off is given here.

Columns and labels:
[1] = molecular target: T1, Calpain-1 catalytic subunit (Homo sapiens) (UniProt P07384); assay: Inhibition of calpain (unknown origin) at 1 uM using Suc-LY-AMC as fluorogenic substrate after 60 mins by spectrofluorometric analysis relative to calpeptin
T1 sequence (whole entry): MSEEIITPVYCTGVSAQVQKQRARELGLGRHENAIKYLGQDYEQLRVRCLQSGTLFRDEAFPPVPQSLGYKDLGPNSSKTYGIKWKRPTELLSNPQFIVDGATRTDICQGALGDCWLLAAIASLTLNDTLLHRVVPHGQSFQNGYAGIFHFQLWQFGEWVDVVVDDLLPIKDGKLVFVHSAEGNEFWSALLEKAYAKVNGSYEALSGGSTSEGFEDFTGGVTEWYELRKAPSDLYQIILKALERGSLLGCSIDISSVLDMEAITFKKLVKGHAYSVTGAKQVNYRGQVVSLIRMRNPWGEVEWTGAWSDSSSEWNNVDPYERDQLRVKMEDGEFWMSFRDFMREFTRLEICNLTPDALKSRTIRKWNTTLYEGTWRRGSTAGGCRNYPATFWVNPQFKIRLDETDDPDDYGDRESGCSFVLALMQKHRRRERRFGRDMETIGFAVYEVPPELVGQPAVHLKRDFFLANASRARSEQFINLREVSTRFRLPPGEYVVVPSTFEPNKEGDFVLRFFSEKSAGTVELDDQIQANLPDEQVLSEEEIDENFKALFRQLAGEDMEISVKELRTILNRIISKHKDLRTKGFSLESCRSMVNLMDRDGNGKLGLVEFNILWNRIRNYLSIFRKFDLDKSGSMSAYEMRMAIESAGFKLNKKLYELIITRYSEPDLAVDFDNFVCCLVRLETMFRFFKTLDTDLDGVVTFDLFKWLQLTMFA

[2] = molecular target: T2, Calpain-1 catalytic subunit (Homo sapiens, UniProt P07384); assay: Inhibition of calpain (unknown origin) using Suc-LY-AMC as fluorogenic substrate after 60 mins by spectrofluorometric analysis
T2 sequence (P07384 whole entry): T1 sequence (whole entry)

HK-2 [3] = assay: Cytoprotective activity against NaN3-induced apoptosis in human HK2 cells at 1 uM pre-incubated with 200 mM NaN3 for 30 mins followed by 24 hrs recovery with compound propidium iodide staining-based flow cytometric analysis (reference value: 27.3 +/- 4.9%); format: functional
HK-2 [4] = assay: Induction of apoptosis in human HK2 cells at 1 uM after 24 hrs by propidium iodide staining-based flow cytometric analysis (reference value: 3.8 +/- 1%); format: cell-based; details: hk-2, 24 h
[5] = molecular target: T1, Calpain-1 catalytic subunit (Homo sapiens); assay: Uncompetitive inhibition of calpain (unknown origin) at 1 to 10 uM using Suc-LY-AMC as fluorogenic substrate after 60 mins by Lineweaver-Burk plot analysis
HK-2 [6] = assay: Cytoprotective activity against NaN3-induced apoptosis in human HK2 cells at 0.1 to 10 uM pre-incubated with NaN3 for 30 mins followed by 24 hrs recovery with compound propidium iodide staining-based flow cytometric analysis; format: functional, cell-based
HK-2 [7] = assay: Cytotoxicity against human HK2 cells at 0.1 to 10 uM after 24 hrs by MTT assay; format: cell-based; details: hk-2, 24 h

inhibition [1] [%] | IC50 [2] [nM] | Compound | also measured
79.4 | 380 | COCCN/C(=C1/N=CN(CCOC)C1=O)c1cc2cccnc2[nH]1 | –
28.2 | – | O=C1/C(=C(\NCc2ccccc2)c2cc3ccccc3[nH]2)N=CN1Cc1ccccc1 | –
9 | – | O=C1/C(=C(\NC2CCCCC2)c2cc3ccccc3[nH]2)N=CN1C1CCCCC1 | –
37.2 | – | CC(C)N/C(=C1/N=CN(C(C)C)C1=O)c1cc2cccnc2[nH]1 | –
71.9 | > 1000 | COCCN/C(=C1/N=CN(CCOC)C1=O)c1[nH]c2ccccc2c1Cl | –
21.5 | > 1000 | COCCN/C(=C1/N=C(c2ccccc2)N(CCOC)C1=O)c1cc2ccccc2[nH]1 | –
11.7 | – | O=C1/C(=C(\NCc2ccccc2)c2cc3cccnc3[nH]2)N=CN1Cc1ccccc1 | –
14 | – | CCCCN/C(=C1/N=CN(CCCC)C1=O)c1cc2ccccc2[nH]1 | –
– | – | CCCC[C@@H](C=O)NC(=O)[C@H](CC(C)C)NC(=O)OCc1ccccc1 [CALPEPTIN] | Activity (HK-2 [3]): 9.9%; Activity (HK-2 [4]): 5.9%
4.5 | – | O=C1/C(=C(\NC2CCCCC2)c2cc3cccnc3[nH]2)N=CN1C1CCCCC1 | –
76.8 | 1080 | COCCN/C(=C1/N=CN(CCOC)C1=O)c1[nH]c2ccccc2c1I | –
57.8 | > 1000 | CC(C)N/C(=C1/N=CN(C(C)C)C1=O)c1cc2ccccc2[nH]1 | –
75.4 | 350 | CCCCN/C(=C1/N=CN(CCOC)C1=O)c1cc2ccccc2[nH]1 | –
93 | 20 | COCCN/C(=C1/N=C(C)N(CCOC)C1=O)c1cc2ccccc2[nH]1 | –
71.8 | 1020 | COCCCN/C(=C1/N=CN(CCOC)C1=O)c1cc2ccccc2[nH]1 | –
62.9 | > 1000 | COCCN/C(=C1/N=CN(CCOC)C1=O)c1[nH]c2ccccc2c1Br | –
64.6 | > 1000 | COCCN1C=N/C(=C(/NCCN(C)C)c2cc3ccccc3[nH]2)C1=O | –
73.7 | 460 | COCCN/C(=C1/N=CN(CCOC)C1=O)c1cc2ccccc2[nH]1 | inhibition [5]: Active; Activity (HK-2 [6]): Active; Activity (HK-2 [7]): Non-Toxic
